For assay [1], the target named is CK1δ (Homo sapiens, UniProt P48730). In words: Casein kinase 1δ inhibition assay, Z'-LYTE FRET based (ThermoFisher SelectScreen). Format: biochemical. The settings on record: for % Inhibition CK1δ: 10 μM concentration, high-throughput screening. The protocol:
Casein kinase 1δ Inhibition Assay: An initial high-throughput assay of the 28 commercially purchased compounds and 22 synthesized compounds were conducted at a 10 μM concentration at the ThermoFisher Select Screen facility. […] FIG. 1 sets forth their chemical structures.
These compounds were then subjected to dose response curve determination studies with the same FRET based assays at ThermoFisher Scientific. The IC50 values, defined as the concentration of the compound required to […] by 50%, of the some of the compounds from the screening were measured (Table 2).
(§1) The synthesized molecules from FIG. 5 were then analyzed for the inhibition of CK1δ and CK1ε, using in-vitro kinase inhibition assay. The in-vitro kinase inhibition assays were conducted at the ThermoPisher Select Screen Biochemical Kinase Profiling Service. It is a Z′-LYTE biochemical FRET based fluorescence assay with a coupled enzyme format that has differential sensitivity to phosphorylated and non-phosphorylated peptides upon proteolytic cleavage. An initial high-throughput in-vitro screening assay at a concentration of 10 μM for all of the compounds in FIG. 5.
(§2) Table 4 sets forth the IC50 values of inhibition of CK1δ and CK1ε by some of the compounds from FIG. 5.

In assay [2] the target is CK1ε (Homo sapiens, UniProt P49674). Nature of the assay: In-vitro kinase inhibition assay, Z'-LYTE FRET based (ThermoFisher SelectScreen). To be noted: for % Inhibition CK1ε: 10 μM concentration, high-throughput screening; for IC50: 10-point titration, 3-fold dilution from 25 μM (Table 4). Format: biochemical. The protocol: as §1, §2
CK1ε, sequence (P49674 whole entry): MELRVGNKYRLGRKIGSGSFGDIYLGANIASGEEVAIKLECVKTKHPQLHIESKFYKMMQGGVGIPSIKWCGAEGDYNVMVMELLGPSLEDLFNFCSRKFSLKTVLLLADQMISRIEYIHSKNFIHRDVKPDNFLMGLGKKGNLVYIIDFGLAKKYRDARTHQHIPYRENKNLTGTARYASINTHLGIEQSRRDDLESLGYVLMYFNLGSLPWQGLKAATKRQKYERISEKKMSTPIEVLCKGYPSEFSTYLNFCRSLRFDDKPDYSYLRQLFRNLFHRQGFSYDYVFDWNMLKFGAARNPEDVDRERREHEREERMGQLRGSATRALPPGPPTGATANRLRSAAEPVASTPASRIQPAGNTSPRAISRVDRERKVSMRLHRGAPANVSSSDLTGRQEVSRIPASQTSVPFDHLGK
Assay [3] deals with CSNK1D (CK1δ) (Homo sapiens, UniProt P48730). In words: 100 kinase panel assay. Format: biochemical. From the text:
(§3) Compound 2 (from FIG. 1) was screened against a panel of 100 kinases to understand the specificity.

Assay [4] concerns the target PIM1 (Homo sapiens, UniProt P11309). Nature of the assay: 100 kinase panel assay. Format: biochemical.
Description: as §3

For assay [5], the target named is PIM3 (Homo sapiens, UniProt Q86V86). Nature of the assay: 100 kinase panel assay. Format: biochemical.
Description: as §3

Assay [6] deals with tau phosphorylation at Ser202 in HeLa cells. Nature of the assay: Inhibition of tau phosphorylation at serine 202 in HeLa cells expressing full-length Tau. Format: cell-based. To be noted: HeLa cells transfected with full length tau, 10 μM compound; for inhibition of tau phosphorylation of Ser202: pTau/total Tau. The protocol:
FIG. 3A and FIG. 3B show inhibition of Tau phosphorylation by CK1δ inhibitors in HeLa cells. HeLa cervical cancer cells ectopically expressing full-length Tau protein were treated with 10 μM of the indicated compounds. Samples were prepared in triplicate. […] Actin was used as a loading control only and was not used in any later calculations. […] The Y axis reflects the average change in pTau levels divided by total Tau levels for the triplicate experiments for each compound. For normalization purposes, the vehicle control was set to 1.0 and all other values were adjusted accordingly.
For a CK1δ inhibitor to be considered a potential therapeutic for AD, the compound should be able to inhibit the phosphorylation of tau at the specific residues that are known to be phosphorylated by CK1δ. It has been shown that tau phosphorylation at Ser202/Ser205 and Ser396/Ser404 by CK1δ is not dependent on the priming by other protein kinases. Additionally, these phosphorylation sites are among those sites (Ser199, Ser 202, Ser231, Thr205, Ser396 and Ser404) that regulate the microtubule stabilizing function. Based on these evidences, Ser202 was chosen as the representative tan phosphorylation site of this study to understand the efficacy of our CK1δ inhibitors in inhibiting tau phosphorylation.
Inhibition of Tau Phosphorylation. To confirm biological relevance, the compounds identified by the FRET screens as potential CK1δ inhibitors were tested in an in vitro assay for their ability to inhibit the phosphorylation of tau at serine 202, a known target of CK1δ. LH 846, a known inhibitor of CK1δ was used as the positive control. […] In in-vitro tau phosphorylation assay in HeLa cells that were transfected with full length tau, the CK1δ inhibitors indeed lowered the tau phosphorylation levels at Ser202 by 20%-56%. Compounds 8 and 9 inhibited tau phosphorylation of Ser202 by 56% and 55%, respectively when added to HeLa cells that were transfected with and therefore overexpressed tan protein (FIG. 3).

Setting [7] is: dose response, FRET based assay (Table 2), read-out: CK1δ (IC50 μM).
Where [8] appears, read: 10-point titration, 3-fold dilution from 25 μM (Table 4), read-out: IC50 values of inhibition of CK1δ.
The mark [9] stands for this setting: 10-point titration, 3-fold dilution from 25 μM (Table 4).

Structures are written as SMILES. Where two headings read alike, the source gives them in different places.

CK1δ, sequence (P48730 whole entry): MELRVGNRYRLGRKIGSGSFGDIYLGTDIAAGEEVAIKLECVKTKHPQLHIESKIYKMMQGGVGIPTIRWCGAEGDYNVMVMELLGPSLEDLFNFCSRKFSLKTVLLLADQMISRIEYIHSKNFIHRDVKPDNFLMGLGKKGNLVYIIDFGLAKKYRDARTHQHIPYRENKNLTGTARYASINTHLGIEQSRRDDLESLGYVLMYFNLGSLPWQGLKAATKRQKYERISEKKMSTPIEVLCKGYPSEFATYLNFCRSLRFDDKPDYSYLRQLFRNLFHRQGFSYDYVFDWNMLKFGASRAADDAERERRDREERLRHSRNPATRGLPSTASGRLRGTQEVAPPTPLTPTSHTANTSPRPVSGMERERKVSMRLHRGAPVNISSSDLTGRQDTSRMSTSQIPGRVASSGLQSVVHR
PIM1, sequence (P11309 whole entry): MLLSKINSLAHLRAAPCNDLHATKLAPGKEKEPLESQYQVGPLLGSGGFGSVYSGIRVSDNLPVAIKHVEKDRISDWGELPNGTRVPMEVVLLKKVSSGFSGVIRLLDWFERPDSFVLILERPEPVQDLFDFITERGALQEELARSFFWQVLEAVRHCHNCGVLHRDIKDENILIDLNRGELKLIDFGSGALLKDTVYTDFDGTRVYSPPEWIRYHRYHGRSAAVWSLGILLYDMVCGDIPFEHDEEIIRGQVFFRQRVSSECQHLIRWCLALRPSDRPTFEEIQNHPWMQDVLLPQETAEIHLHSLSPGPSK
CSNK1D (CK1δ), sequence (P48730 whole entry): as the sequence (P48730 whole entry) above

As to `CC(C)(C)OC1CC(O)CC2C(=O)c3c(O)ccc(O)c3C(=O)C12` (stereo not drawn) [Compound 10], the IC50 in assay [1] (setting [7]) came to 10.1 µM.
For the compound `O=C1C=C(c2ccccc2)C(=O)c2c(O)ccc(O)c21` [Compound 23], the “% Inhibition CK1δ” value in assay [1] is given as 17%. In addition, the “% Inhibition CK1ε” value in assay [2] is 60%.
Regarding `O=C1C(CO)=C(CO)C(=O)c2c(O)ccc(O)c21` [Compound 11], the 50% inhibitory concentration (IC50) in assay [1] (setting [7]) was determined as 27.2 µM.
The same measure, in the same setting: in the case of `CNC(=O)c1ccc2c(c1N)C(=O)c1ccccc1C2=O` [Compound 7] it was 19.4 µM.
As to `O=C1C(c2ccccc2)=C(c2ccccc2)C(=O)c2c(O)ccc(O)c21` [Compound 21], the “% Inhibition CK1δ” value in assay [1] is listed as 8%. The “% Inhibition CK1ε” value in assay [2] worked out at 14%.
Turning to `O=C1c2ccccc2C(=O)c2c(NCCO)cccc21` [Compound 6], the IC50 in assay [1] (setting [7]) came out at 21.2 µM.
On the same count and under the same terms, in the case of `O=Cc1cc(O)c2c(c1O)C(=O)C=CC2=O` [Compound 14] it was 3.1 µM; in that of `COc1cc2cc3c(c(O)c2c(O)c1C=CC(C)C)C(=O)CC(C)(OC(C)=O)C3` (stereo not drawn) [Compound 4], 16.1 µM.
On to `O=C1C2=C(C(=O)c3c(O)ccc(O)c31)C(O)C(O)C(O)C2` (stereo not drawn) [Compound 2], for which the “% Inhibition at 10 μM, CSNK1D” value in assay [3] is on record as 70%. In assay [4], the “% Inhibition at 10 μM, PIM1” value was 66%. Besides, in assay [5], the “% Inhibition at 10 μM, PIM3” value came to 64%. Further, the “inhibition of tau phosphorylation at Ser202 (in words)” value (from here on “inhibition … (in words)”) in assay [6] is “did not measure up to them”.
`CC(C)C(C)OC1CC(=O)CC2C(=O)c3c(O)ccc(O)c3C(=O)C12` (stereo not drawn) [Compound 9]: in assay [1] (setting [7]), the IC50 was 5.8 µM. In assay [6], the “inhibition … (in words)” value is listed as “comparable inhibition potency” and the “inhibition of tau phosphorylation of Ser202” value (from here on “inhibition … of Ser202”) is 55%.
Consider `CC(=O)Oc1ccc(O)c2c1C(=O)C=CC2=O` [Compound 3], for which the IC50 in assay [1] (setting [7]) turned out to be 0.2 µM.
For the compound `Cc1ccc(O)c2c1C(=O)C=CC2=O` [Compound 13], in assay [1] (10 µM), the “% Inhibition CK1δ” value amounted to 85%. For the same compound, the values for the IC50 in assay [1] (setting [8]), in assay [1] (setting [7]) and in assay [2] were 2.41 µM, 31.2 µM and 1.19 µM, respectively. For the same compound, in assay [2] (10 µM), the “% Inhibition CK1ε” value was 98%.
For `CCc1cc(O)c2c(c1)C(=O)C=C(C1=CC(=O)c3cc(CC)cc(O)c3C1=O)C2=O` [Compound 26], the “% Inhibition CK1δ” value in assay [1] was determined as 43%. Moreover, the “% Inhibition CK1ε” value in assay [2] was found to be 64%.
Turning to `CC(C)(C)OC1CC(=O)CC2C(=O)c3cccc(O)c3C(=O)C12` (stereo not drawn) [Compound 8], in assay [1] (setting [7]), the IC50 was 18.9 µM. In assay [6], the “inhibition … (in words)” value is “comparable inhibition potency” and the “inhibition … of Ser202” value was 56%.
Regarding `CC(C)CCc1cc(O)c2c(c1)C(=O)C=C(C1=CC(=O)c3cc(CCC(C)C)cc(O)c3C1=O)C2=O` [Compound 28], the “% Inhibition CK1δ” value in assay [1] worked out at 9%. For the same compound, the “% Inhibition CK1ε” value in assay [2] turned out to be 13%.
As for `O=C1C=CC(=O)c2c(O)c(Cl)cc(O)c21` [Compound 18], the “% Inhibition CK1δ” value in assay [1] amounted to 13%. Moreover, the “IC50 values of inhibition of CK1δ” value in assay [1] (setting [9]) is “could not be determined”. Further, the IC50 in assay [1] (setting [8]) is more than 25 µM; in assay [2] it was 1.34 µM. Also, in assay [2] (10 µM), the “% Inhibition CK1ε” value is 90%.
For the compound `CCCCCc1cc(O)c2c(c1)C(=O)C=C(C1=CC(=O)c3cc(CCCCC)cc(O)c3C1=O)C2=O` [Compound 27], the “% Inhibition CK1δ” value in assay [1] is 9%. Also, the “% Inhibition CK1ε” value in assay [2] came out at 13%.
As for `O=C1C(Cl)=C(Cl)C(=O)c2c(O)c(Cl)cc(O)c21` [Compound 19], the “% Inhibition CK1δ” value in assay [1] is 42%. The IC50 in assay [1] (setting [8]) worked out at 9.58 µM. Further, the “% Inhibition CK1ε” value in assay [2] (10 µM) turned out to be 88%. The “selectivity for CK1ε over CK1δ” value in assay [2] (from % inhibition at 10 μM) came to 2 fold.
As for `O=C1C(Cl)=C(Cl)C(=O)c2c(O)ccc(O)c21` [Compound 20], the “% Inhibition CK1δ” value in assay [1] is given as 21%. Also, the “IC50 values of inhibition of CK1δ” value in assay [1] (setting [9]) was “could not be determined”. The IC50 in assay [1] (setting [8]) was more than 25 µM; in assay [2] it was 7.52 µM. Further, the “% Inhibition CK1ε” value in assay [2] (10 µM) is 84%.
`Cc1cc(O)c2c(c1O)C(=O)C=CC2=O` [Compound 15]: the “% Inhibition CK1δ” value in assay [1] was 31%. In addition, the IC50 in assay [1] (setting [7]) is 6.3 µM. Also, the “% Inhibition CK1ε” value in assay [2] was 58%.
As to `CCCCCCc1cc(O)c2c(c1)C(=O)C=C(C1=CC(=O)c3cc(CCCCCC)cc(O)c3C1=O)C2=O` [Compound 30], the “% Inhibition CK1δ” value in assay [1] stood at 6%. Further, the “% Inhibition CK1ε” value in assay [2] is on record as 12%.
On the same counts, the results for `CC(C)Cc1cc(O)c2c(c1)C(=O)C=CC2=O` [Compound 25] are 11% and 48%.
On to `O=C1C=C(Br)C(=O)c2c(O)ccc(O)c21` [Compound 24], for which, in assay [1], the “% Inhibition CK1δ” value is on record as 1%. In assay [1] (setting [9]), the “IC50 values of inhibition of CK1δ” value is on record as “could not be determined”. Besides, the IC50 is more than 25 µM in assay [1] (setting [8]) and 2.1 µM in assay [2]. In addition, the “% Inhibition CK1ε” value in assay [2] (10 µM) was 96%.
Take `CC(O)C1=CC(=O)c2c(O)ccc(O)c2C1=O` (stereo not drawn) [Compound 16]: in assay [1] (setting [7]), the IC50 was 2.4 µM. Also, the “inhibition … (in words)” value in assay [6] is given as “comparable inhibition potency”.
As to `CC1=C(C)C(=O)c2c(O)c(Cl)cc(O)c2C1=O` [Compound 22], the “% Inhibition CK1δ” value in assay [1] is reported as 2%. In assay [2], the “% Inhibition CK1ε” value amounted to 39%.
Turning to `O=C1C=C(CBr)C(=O)c2c(O)ccc(O)c21` [Compound 12], the “% Inhibition CK1δ” value in assay [1] (10 µM) is 94%. Also, the 50% inhibitory concentration (IC50) was determined as 0.72 µM in assay [1] (setting [8]) and 0.7 µM in assay [1] (setting [7]). Also, in assay [2] (10 µM), the “% Inhibition CK1ε” value turned out to be 101%. Further, in assay [6], the “inhibition … (in words)” value was “comparable inhibition potency”.
For the compound `CC(C)Cc1cc(O)c2c(c1)C(=O)C=C(C1=CC(=O)c3cc(CC(C)C)cc(O)c3C1=O)C2=O` [Compound 29], the “% Inhibition CK1δ” value in assay [1] turned out to be 8%. Also, the “% Inhibition CK1ε” value in assay [2] came out at 15%.
Take `COc1cccc2c1C(=O)c1c(O)ccc(O)c1C2=O` [Compound 5]: the IC50 in assay [1] (setting [7]) was 0.2 µM. Also, in assay [6], the “inhibition … (in words)” value was “comparable inhibition potency” and the “inhibition … of Ser202” value is reported as “approximately 43%”.

Source of the values: patent publication US20220378721A1, “PROTEIN KINASE INHIBITORS AND USE THEREOF FOR TREATMENT OF NEURODEGENERATIVE DISEASES” (Xavier University of Louisiana, priority 2019, published 2022).
